Assay results as given in article doi:10.1101/2024.12.09.627393 (bioRxiv, 2024).

Tested on: CECR2-BRD
Assay: 2D 15N-HSQC NMR chemical shift perturbation titration
Format: binding, human
Conditions: 15N-labeled CECR2-BRD, 25°C; 3% DMSO, or NVS-CECR2–1 including 3% DMSO
Procedure: CECR2-BRD was expressed and purified for NMR experiments following previously established methods, [18]. Briefly, uniformly labeled ^15N CECR2-BRD samples in buffer containing 20 mM Tris-HCl pH 6.8, 150 mM NaCl, 1 mM TCEP, and 10% D2O were purified at 0.30 mM for chemical-shift perturbation experiments.
All two-dimensional (2D) ^15N-HSQC (heteronuclear single quantum […]) experiments were acquired at 25°C using a 600 MHz Bruker AVANCE III spectrometer equipped with a z-gradient 1.7 mm TCI probe at the National Magnetic Resonance Facility at Madison (NMRFAM). The experimental setup for all 2D experiments was kept similar to our previous studies, [18]. […] Chemical Shift Perturbations (CSP) from the final titration point were calculated and normalized as described by Williamson[21], using the equation: Δδ=√ΔδH^2+α⋅ΔδN^2 Where α=0.2 for glycine, and 0.14 for all other residues. ΔδH and ΔδN represent chemical shifts in ppm for hydrogen and nitrogen atoms, respectively. […] These were calculated using the standard deviation (Δ ppm/ Standard deviation ppm, where standard deviation was calculated for each histone ligand) of the Euclidean chemical change of the residues as described previously, [18].

## C[S+](C)[O-] [DMSO]
  Chemical shift perturbations of CECR2-BRD residues (in words): significant (> 1 Δppm) shifts in residues within the ZA loop and BC loop region

## CCCS(=O)(=O)c1nc(NC2CC2)cc(-c2ccc3c(ccn3C3CC(C)(C)NC(C)(C)C3)c2)n1 [NVS-CECR2–1]
  Chemical shift perturbations of CECR2-BRD residues (in words): CSPs in some residues within αA, αB and αC helices
